According to patent US20160115540A1, “PRODRUGS AND DRUGS” (Biogen MA Inc., priority 2013, published 2016):
Counter-ions that a name gives are not always drawn.

Assays:
[1] = test system: spleen; assay: Transcriptional profiling, chronic dosing, EAE mice: spleen; assay type: in vivo; settings: for Number of differentially expressed genes identified: Spleen: EAE, Chronic Dosing
Experimental: 2011 March 134(Pt3): 678-92. […] FIG. 17 depicts exemplary immunophenotyping panels used to analyze various immune cell populations (e.g., T cells, T regulatory cells, NK cells, B cells, myeloid cells). […] Animals were exposed to CO2 and whole blood collected via cardiac puncture. Two 100 μl aliquots of whole blood were collected in 1.5 mL microcentrifuge tubes and snap frozen in liquid nitrogen. Peripheral (liver, spleen, kidney and jejunum) and CNS brain (cerebellum, hippocampus, striatum and cortex) tissues were harvested and snap frozen in liquid nitrogen, with special care taken to collect tissues of similar size and from the same location. All samples were stored at -80° C. until RNA extraction was conducted. For RNA preparation, frozen tissues were placed in 2 mL RNAse-free 96-well blocks with 1.5 mL QIAzol Lysis Reagent (QIAgen) and a 3.2 mm stainless steel bead (BioSpec Products, Bartlesville, Okla.). Tissues were disrupted for four cycles of 45 seconds in a Mini-Beadbeater (Biospec Products). RNA was extracted in chloroform and the aqueous phase was mixed with an equal volume of 70% ethanol. Extracted RNA was applied to RNeasy 96 plates and purified by the spin method according to the manufacturer's protocol (RNeasy 96 Universal Tissue Protocol, QIAgen, Hilden Germany). […] Washing and staining of the hybridized arrays were completed as described in the GeneChip Expression analysis technical manual for HT plate arrays using the Genechip® Array Station (Affymetrix, Santa Clara, Calif.) with modifications as described in […] et al. The processed GeneChip® plate arrays were scanned using GeneTitan scanner (Affymetrix, Santa Clara, Calif.). Affymetrix scans were subject to quality control (QC) measures. These tests included a visual inspection of the distribution of raw signal intensities and an assessment of RNA degradation, relative log expression (RLE), and normalized unscaled standard error (NUSE). All sample scans that passed these QC metrics were included in the analysis. All CEL files were subjected to GC-content-based Robust Multi-array Average (GCRMA) normalization (version 2.20.0) (Irizarry R A, et al. Nucleic Acids Res 2003; 31:e15; Li C, et al. Genome Biol 2001; 2:[…]0032). […] Stat Appl Genet Mol Biol 2004; 3:Article3). […] Springer Science+Business Media 2005).

[2] = test system: spinal cord; assay: Transcriptional profiling, multi-dosing regimen, naïve mice: spinal cord; assay type: in vivo; settings: for FC, Depp (1433836_PM_a_at) / FC, Depp (1433837_PM_at): SpinalCord, multi-dosing; for Number of differentially expressed genes identified: Spinal Cord: Table 13: Naïve, Single Dose (so in the source), 12 h after last dosing
Experimental: In vivo, DMF is rapidly metabolized to monomethyl fumarate (MMF). […] Animals were exposed to CO2 and whole blood collected via cardiac puncture. Two 100 μl aliquots of whole blood were collected in 1.5 mL microcentrifuge tubes and snap frozen in liquid nitrogen. Peripheral (liver, spleen, kidney and jejunum) and CNS brain (cerebellum, hippocampus, striatum and cortex) tissues were harvested and snap frozen in liquid nitrogen, with special care taken to collect tissues of similar size and from the same location. All samples were stored at -80° C. until RNA extraction was conducted. For RNA preparation, frozen tissues were placed in 2 mL RNAse-free 96-well blocks with 1.5 mL QIAzol Lysis Reagent (QIAgen) and a 3.2 mm stainless steel bead (BioSpec Products, Bartlesville, Okla.). Tissues were disrupted for four cycles of 45 seconds in a Mini-Beadbeater (Biospec Products). RNA was extracted in chloroform and the aqueous phase was mixed with an equal volume of 70% ethanol. Extracted RNA was applied to RNeasy 96 plates and purified by the spin method according to the manufacturer's protocol (RNeasy 96 Universal Tissue Protocol, QIAgen, Hilden Germany). […] Two micrograms of biotin labeled […] probe were hybridized to Affymetrix GeneChip Affymetrix HT_MG-430_PM plate arrays with modified conditions as described in […] et al. Washing and staining of the hybridized arrays were completed as described in the GeneChip Expression analysis technical manual for HT plate arrays using the Genechip® Array Station (Affymetrix, Santa Clara, Calif.) with modifications as described in […] et al. The processed GeneChip® plate arrays were scanned using GeneTitan scanner (Affymetrix, Santa Clara, Calif.). Affymetrix scans were subject to quality control (QC) measures. These tests included a visual inspection of the distribution of raw signal intensities and an assessment of RNA degradation, relative log expression (RLE), and normalized unsealed standard error (NUSE). All sample scans that passed these QC metrics were included in the analysis. All CEL files were subjected to GC-content-based Robust Multi-array Average (GCRMA) normalization (version 2.20.0) (Irizarry R A, et al. Nucleic Acids Res 2003; 31:e15; Li C, et al. […] Stat Appl Genet Mol Biol 2004; 3:Article3). […] Springer Science+Business Media 2005). Changes in gene expression were studied by applying a linear modeling approach to fit gene expression levels according to the defined groups of samples (e.g. DMF-, MMF-, and Vehicle-treated animals) and Bayesian posterior error analysis as implemented by Smyth (Smyth G K. Stat Appl Genet Mol Biol 2004; 3:Article3). The comparisons considered included: DMF-vs-MMF, DMF-vs-Vehicle, and MMF-vs-Vehicle. […] Very few DEGs are observed in blood and tissues derived from the central nervous system (brain, cerebellum, cortex, striatum, and spinal cord).

[3] = SPINAL CORD, 100DMF-vs-100MMF, naïve multidose

## COC(=O)/C=C/C(=O)OC [DMF, dimethyl fumarate]
[1]; 100 mpk DMF-vs-90 mpk MMF, 7 h after last dosing
  Number of differentially expressed genes identified: Spleen: 3
[1]; 100 mpk DMF-vs-90 mpk MMF, 12 h after last dosing
  Number of differentially expressed genes identified: Spleen: 4
[1]; 100 mpk DMF-vs-Vehicle, 7 h after last dosing
  Number of differentially expressed genes identified: Spleen: 12
[1]; 100 mpk DMF-vs-Vehicle, 12 h after last dosing
  Number of differentially expressed genes identified: Spleen: 7
[1]; spleen, 100DMF-vs-90MMF, 7 h
  FC Ear1 (1421802_PM_at): −3.57
  FC Epx (1449136_PM_at): −3.20
  FC Prg2 (1422873_PM_at): −2.10
[1]; spleen, 100DMF-vs-90MMF, 12 h
  FC Angptl4 (1417130_PM_s_at): 1.97
  FC Zbtb16 (1419874_PM_x_at): 1.95
  FC Zbtb16 (1442025_PM_a_at): 2.29
  FC Zbtb16 (1442026_PM_at): 2.36
[1]; spleen, 100DMF-vs-Veh, 7 h
  FC 4930519L02Rik (1454269_PM_s_at): 1.66
  FC Adamts4 (1455965_PM_at): −1.51
  FC Aox1 (1419435_PM_at): 1.88
  FC Gsta3 (1423436_PM_at): 2.02
  FC Gsta3 (1423437_PM_at): 1.94
  FC LOC677317 /// Me1 1416632_PM_at: 1.61
  FC Nqo1 (1423627_PM_at): 2.27
  FC Pir (1429001_PM_at): 2.74
  FC Srxn1 (1419942_PM_at): 2.31
  FC Srxn1 (1426875_PM_s_at): 2.29
  FC Srxn1 (1451680_PM_at): 2.14
  FC Steap4 (1425829_PM_a_at): −1.88
[1]; spleen, 100DMF-vs-Veh, 12 h
  FC Dbp (1418174_PM_at): −1.65
  FC Dbp (1438211_PM_s_at): −1.78
  FC Ighg (1424631_PM_a_at): −1.52
  FC Srxn1 (1419942_PM_at): 1.85
  FC Srxn1 (1426875_PM_s_at): 1.90
  FC Srxn1 (1451680_PM_at): 1.60
[1]; spleen, chronically dosed EAE mice, 12 h after final dosing
  Zbtb16 transcript signal, DMF-treated compared to MMF-treated animals: increased signal
[2]; [3]
  FC 8430408G22Rik (1433836_PM_a_at): 1.92
  FC 8430408G22Rik (1433837_PM_at): 1.65
  FC Mtmr2 (1425459_PM_at): 1.57
  FC Tle4 (1430384_PM_at): −1.55
[2]; SPINAL CORD, 100DMF-vs-Veh, naïve multidose
  FC 8430408G22Rik (1433837_PM_at): 1.73
[2]; DMF-vs-MMF
  FC, Depp (1433836_PM_a_at): 1.92
  FC, Depp (1433837_PM_at): 1.65
[2]; DMF-vs-Vehicle
  FC, Depp (1433836_PM_a_at): 1.66
  FC, Depp (1433837_PM_at): 1.73
[2]; 100 mpk DMF-vs-90 mpk MMF
  Number of differentially expressed genes identified: Spinal Cord: 4
[2]; 100 mpk DMF-vs-Vehicle
  Number of differentially expressed genes identified: Spinal Cord: 1
[2]; spinal cord, multi-dosing regimen, naïve mice
  DEPP gene induction (mRNA): robustly induced

## COC(=O)/C=C/C(=O)O [MMF, monomethyl fumarate]
[1]; 90 mpk MMF-vs-Vehicle, 7 h after last dosing
  Number of differentially expressed genes identified: Spleen: 23
[1]; 90 mpk MMF-vs-Vehicle, 12 h after last dosing
  Number of differentially expressed genes identified: Spleen: 9
[1]; spleen, 100MMF-vs-Veh, 7 h
  FC 1441413_PM_at (no gene symbol): 1.54
  FC 1451626_PM_x_at (no gene symbol): 1.55
  FC 2810037O22Rik (1428866_PM_at): −1.88
  FC 4930519L02Rik (1454269_PM_s_at): 1.78
  FC Aox1 (1419435_PM_at): 1.91
  FC Cacnb3 (1448656_PM_at): −1.58
  FC Figf /// LOC100047108 (1438953_PM_at): 1.57
  FC Gsta3 (1423436_PM_at): 1.74
  FC Gsta3 (1423437_PM_at): 1.61
  FC Higd1c /// Mettl7a1 /// Mettl7a2 1434150_PM_a_at: 1.57
  FC Kcnh1 (1435994_PM_at): −1.60
  FC Lmcd1 1424596_PM_s_at: −1.74
  FC Mmp16 (1437568_PM_at): −1.56
  FC Nqo1 (1423627_PM_at): 2.35
  FC Pdk4 (1417273_PM_at): 1.68
  FC Pir (1429001_PM_at): 2.67
  FC Socs3 (1416576_PM_at): −1.79
  FC Srxn1 (1419942_PM_at): 2.29
  FC Srxn1 (1426875_PM_s_at): 2.26
  FC Srxn1 (1451680_PM_at): 2.05
  FC Steap4 (1425829_PM_a_at): −1.91
  FC Steap4 (1460197_PM_a_at): −2.48
  FC Txnrd1 (1424486_PM_a_at): 1.69
[1]; spleen, 100MMF-vs-Veh, 12 h
  FC 2810037O22Rik (1428866_PM_at): −1.55
  FC Dbp (1418174_PM_at): −1.85
  FC Dbp (1438211_PM_s_at): −1.90
  FC Dclre1a (1432097_PM_a_at): 1.56
  FC Nqo1 (1423627_PM_at): 2.05
  FC Nr1d1 (1426464_PM_at): −1.76
  FC Nr1d2 (1416958_PM_at): −1.53
  FC Srxn1 (1419942_PM_at): 1.73
  FC Srxn1 (1426875_PM_s_at): 1.75
[2]; MMF-vs-Vehicle
  FC, Depp (1433836_PM_a_at): −1.16
  FC, Depp (1433837_PM_at): 1.05
[2]; 90 mpk MMF-vs-Vehicle
  Number of differentially expressed genes identified: Spinal Cord: 0
